Holding throughout (type): ADME, organism-based
Holding throughout (conditions): in vivo

Data set [1] has as its system Plasma. The experiment in a line: Metabolic stability in healthy human plasma assessed as compound recovery at 3 mg/kg QD. Details: dose 3 mg/kg.
Data set [2] deals with Plasma. Put plainly: Metabolic stability in healthy human plasma assessed as compound recovery at 6 mg/kg BID. Details: dose 6 mg/kg.
Data set [3] concerns Plasma. The experiment in a line: Metabolic stability in healthy human plasma assessed as compound recovery at 7 mg/kg BID. Details: dose 7 mg/kg.

Each structure is given as a SMILES string.

In the case of `CCC(C)n1ncn(-c2ccc(N3CCN(c4ccc(OCC5COC(Cn6cncn6)(c6ccc(Cl)cc6Cl)O5)cc4)CC3)cc2)c1=O` (stereo not drawn) [ITRACONAZOLE], in the data set with Plasma [1], the Stability stood at 114.5%.

As to `CC[C@@H]([C@H](C)O)n1ncn(-c2ccc(N3CCN(c4ccc(OC[C@@H]5CO[C@@](Cn6cncn6)(c6ccc(F)cc6F)C5)cc4)CC3)cc2)c1=O` [POSACONAZOLE], the Stability with Plasma [2] is given as 85.5%. On to `C[C@@H](c1ncncc1F)[C@](O)(Cn1cncn1)c1ccc(F)cc1F` [VORICONAZOLE], for which, in the data set with Plasma [3], the Stability is reported as 97.2%.

The values above are taken from ChEMBL document CHEMBL1649307, “Development, validation, and routine application of a high-performance liquid chromatography method coupled with a single mass detector for quantification of itraconazole, voriconazole, and posaconazole in human plasma” (Antimicrob Agents Chemother, 2010).
